Experimental findings from US8268827B2, “Pyridazinone derivatives as PARP inhibitors” (Istituto di Ricerche di Biologia Molecolare P. Angeletti …, priority 2007, dated 2012) are described below.

A word on the CC50: it is the concentration at which the toxic effect on the cells reaches its halfway point.

Structures are written as SMILES. Counter-ions that a name gives are not always drawn.

The assay deals with BRCA-1 silenced HeLa cells (HeLa shBRCA1-GFP). Kind of assay: Proliferation assay in BRCA-1 silenced HeLa cells. The assay is classed as cell-based. The following applies: Homo sapiens; BRCA1 silenced HeLa cells, 168 hours; read-out: CC50 in the BRCA1 silenced HeLa cells. As for the experimental part:
Proliferation Assay in BRCA-1 Silenced HeLa Cells
Compounds of the present invention were also tested in an anti-proliferative assay in matched pair BRCA1 wt and BRCA1-(shRNA) HeLa cells.
The assay is based on the ability of living cells to convert a redox dye (resazurin) into a fluorescent end product (resofurin). The amount of resofurin produced is directly proportional to the cell number.
HeLa shBRCA1-GFP—These are HeLa cells transduced at an MOI of 100 with a Lentivirus containing a shRNA against BRCA-1 and an expression cassette for GFP. BRCA-1 silencing is more than 80% as assessed by Taqman analysis and the cells stably express GFP.
HeLa THM-GFP—These are HeLa cells transduced at an MOI of 100 with a control vector not expressing any shRNA.
• Seed 300 cell/well in 96 wells viewplate black in 90 ul culture Medium*: • Incubate 4 hours at 37° C., 5% CO2 • Add 10 ul/well of 10× compound (5% DMSO in H2O) • Incubate for 168 hours at 37° C., 5% CO2 • Add 10 ul of Celltiter Blue solution (Promega, G8081) pre-diluted 1:1 in PBS1× • Incubate the mixture for 45′ at 37° C., 5% CO2 • Incubate 15′ at RT in the dark • Read plate at fluorimeter ex: 550 nm; em: 590 nm *Culture Medium: DMEM (GIBCO, 41966-029), 10% FCS (GIBCO, 10106-169), 0.1 mg/ml Penicillin-Streptomycin (GIBCO, 15140-114), 2 mM L-Glutamine (GIBCO, 3042190)

With `Cc1c(Cc2ccc(F)c(C(=O)N3CCN(C4CCCc5ccccc54)C(=O)C3)c2)n[nH]c(=O)c1C` (stereo not drawn) [Example 99, 6-(4-fluoro-3-{[3-oxo-4-(1,2,3,4-tetrahydronaphthalen-1-yl)piperazin-1-yl]carbonyl}benzyl)-4,5-dimethyl-3-oxo-2,3-dihydropyridazin-1-ium trifluoroacetate], the CC50 was below 50 nM.

On to `Cc1c(Cc2ccc(F)c(C(=O)N3CCN(C4CCc5ccccc54)C(=O)C3)c2)n[nH]c(=O)c1C` (stereo not drawn) [Example 100, 6-(3-{[4-(2,3-dihydro-1H-inden-1-yl)-3-oxopiperazin-1-yl]carbonyl}-4-fluorobenzyl)-4,5-dimethyl-3-oxo-2,3-dihydropyridazin-1-ium trifluoroacetate], for which the CC50 is below 50 nM. Take `Cc1c(Cc2ccc(F)c(C(=O)N3CCN([C@@H]4C[C@H]5CC[C@@H]4C5)C(=O)C3)c2)n[nH]c(=O)c1C` [Example 101, 6-[3-({4-[(1R,2R,4S)-Bicyclo[2.2.1]hept-2-yl]-3-oxopiperazin-1-yl}carbonyl)-4-fluorobenzyl]-4,5-dimethyl-3-oxo-2,3-dihydropyridazin-1-ium trifluoroacetate]: the CC50 was below 50 nM.

For the compound `Cc1c(Cc2ccc(F)c(C(=O)N3CC(=O)N(C4CCCC4)C(C)C3)c2)n[nH]c(=O)c1C` (stereo not drawn) [Example 102, 6-{3-[(4-cyclopentyl-3-methyl-5-oxopiperazin-1-yl)carbonyl]-4-fluorobenzyl}-4,5-dimethyl-3-oxo-2,3-dihydropyridazin-1-ium trifluoroacetate], the half-maximal cytotoxic concentration (CC50) was below 50 nM. As for `Cc1c(Cc2ccc(F)c(C(=O)N3CCN([C@H]4CCCOC4)C(=O)C3)c2)n[nH]c(=O)c1C` [Example 103, 6-[4-fluoro-3-({3-oxo-4-[(3S)-tetrahydro-2H-pyran-3-yl]piperazin-1-yl}carbonyl)benzyl]-4,5-dimethylpyridazin-3(2H)-one], the CC50 lay within 50 to 500 nM.

Turning to `Cc1c(Cc2ccc(F)c(C(=O)N3CCN([C@@H]4CCCOC4)C(=O)C3)c2)n[nH]c(=O)c1C` [Example 104, 6-[4-fluoro-3-({3-oxo-4-[(3R)-tetrahydro-2H-pyran-3-yl]piperazin-1-yl}carbonyl)benzyl]-4,5-dimethylpyridazin-3(2H)-one], the CC50 is below 50 nM. For the compound `CCN1CCN(C(=O)c2cc(Cc3n[nH]c(=O)c(C(F)(F)F)c3C)ccc2F)CC1=O` [Example 105, 3-{3-[(4-Ethyl-3-oxopiperazin-1-yl)carbonyl]-4-fluorobenzyl}-4-methyl-6-oxo-5-(trifluoromethyl)-1,6-dihydropyridazin-1-ium trifluoroacetate], the CC50 was below 50 nM. Take `Cc1c(Cc2ccc(F)c(C(=O)N3CCN(C4COC5(CCCC5)C4)C(=O)C3)c2)n[nH]c(=O)c1C` (stereo not drawn) [Example 106, 6-(4-Fluoro-3-{[4-(1-oxaspiro[4.4]non-3-yl)-3-oxopiperazin-1-yl]carbonyl}benzyl)-4,5-dimethylpyridazin-3(2H)-one trifluoroacetate]: the CC50 lay within 50 to 500 nM. As for `Cc1c(Cc2ccc(F)c(C(=O)N3CCN(C4COC5(CCCCC5)C4)C(=O)C3)c2)n[nH]c(=O)c1C` (stereo not drawn) [Example 107, 6-(4-Fluoro-3-{[4-(1-oxaspiro[4.5]dec-3-yl)-3-oxopiperazin-1-yl]carbonyl}benzyl)-4,5-dimethylpyridazin-3(2H)-one trifluoroacetate], the CC50 is 50 to 500 nM. Next, `Cc1c(Cc2ccc(F)c(C(=O)N3CCN(C4(C)CCCCC4)C(=O)C3)c2)n[nH]c(=O)c1C` [Example 110, 6-(4-fluoro-3-{[4-(1-methylcyclohexyl)-3-oxopiperazin-1-yl]carbonyl}benzyl)-4,5-dimethyl-3-oxo-2,3-dihydropyridazin-1-ium trifluoroacetate]: below 5000 nM; `Cc1c(Cc2ccc(F)c(C(=O)N3CCN([C@@H]4CCOC4)C(=O)C3)c2)n[nH]c(=O)c1C` [Example 112, 6-[4-Fluoro-3-({3-oxo-4-[(3R)-tetrahydrofuran-3-yl]piperazin-1-yl}carbonyl)benzyl]-4,5-dimethylpyridazin-3(2H)-one]: below 5000 nM.

Turning to `Cc1nc(C)c(N2CCN(C(=O)c3cc(Cc4n[nH]c(=O)c(C)c4C)ccc3F)CC2=O)s1` [Example 117, 3-(3-{[4-(2,4-Dimethyl-1,3-thiazol-5-yl)-3-oxopiperazin-1-yl]carbonyl}-4-fluorobenzyl)-4,5-dimethyl-6-oxo-1,6-dihydropyridazin-1-ium trifluoroacetate], the CC50 is 50 to 500 nM. Next, `Cc1c(Cc2ccc(F)c(C(=O)N3CCN(C(c4ccc(F)cc4)C(F)F)C(=O)C3)c2)n[nH]c(=O)c1C` (stereo not drawn) [Example 118, 6-[3-({4-[2,2-difluoro-1-(4-fluorophenyl)ethyl]-3-oxopiperazin-1-yl}carbonyl)-4-fluorobenzyl]-4,5-dimethyl-3-oxo-2,3-dihydropyridazin-1-ium trifluoroacetate]: 50 to 500 nM; `Cc1c(Cc2ccc(F)c(C(=O)N3CCN(C4CCC(c5ccccc5)C4)C(=O)C3)c2)n[nH]c(=O)c1C` (stereo not drawn) [Example 119, 6-(4-fluoro-3-{[3-oxo-4-(3-phenylcyclopentyl)piperazin-1-yl]carbonyl}benzyl)-4,5-dimethyl-3-oxo-2,3-dihydropyridazin-1-ium trifluoroacetate]: below 50 nM. With `Cc1c(Cc2ccc(F)c(C(=O)N3CCN([C@H](C)c4ccccc4)C(=O)C3)c2)n[nH]c(=O)c1C` [Example 121, 6-[4-fluoro-3-({3-oxo-4-[(1R)-1-phenylethyl]piperazin-1-yl}carbonyl)benzyl]-4,5-dimethyl-3-oxo-2,3-dihydropyridazin-1-ium trifluoroacetate] the figure was 50 to 500 nM; with `Cc1c(Cc2ccc(F)c(C(=O)N3CCN([C@@H](C)c4ccccc4)C(=O)C3)c2)n[nH]c(=O)c1C` [Example 122, 6-[4-fluoro-3-({3-oxo-4-[(1S)-1-phenylethyl]piperazin-1-yl}carbonyl)benzyl]-4,5-dimethyl-3-oxo-2,3-dihydropyridazin-1-ium trifluoroacetate], 50 to 500 nM. On to `Cc1c(Cc2ccc(F)c(C(=O)N3CCN([C@H](c4ccccc4)C(F)F)C(=O)C3)c2)n[nH]c(=O)c1C` [Example 123, 6-(3-{[4-(2,2-difluoro-1R-phenylethyl)-3-oxopiperazin-1-yl]carbonyl}-4-fluorobenzyl)-4,5-dimethyl-3-oxo-2,3-dihydropyridazin-1-ium trifluoroacetate], for which the CC50 lay in the range of 50 to 500 nM. With `Cc1c(Cc2ccc(F)c(C(=O)N3CC(=O)N(C4CCC(F)(F)CC4)C(C)C3)c2)n[nH]c(=O)c1C` (stereo not drawn) [Example 126, 6-(3-{[4-(4,4-Difluorocyclohexyl)-3-methyl-5-oxopiperazin-1-yl]carbonyl}-4-fluorobenzyl)-4,5-dimethylpyridazin-3(2H)-one trifluoroacetate] the figure was below 50 nM. With `Cc1c(Cc2ccc(F)c(C(=O)N3CC(=O)N(C4CCC(F)(F)C4)C(C)C3)c2)n[nH]c(=O)c1C` (stereo not drawn) [Example 127, 6-(3-{[4-(3,3-Difluorocyclopentyl)-3-methyl-5-oxopiperazin-1-yl]carbonyl}-4-fluorobenzyl)-4,5-dimethylpyridazin-3(2H)-one trifluoroacetate] the figure was below 50 nM; with `Cc1c(Cc2ccc(F)c(C(=O)N3CC(=O)N(C4CCC(C)(C)CC4)C(C)C3)c2)n[nH]c(=O)c1C` (stereo not drawn) [Example 128, 6-(3-{[4-(4,4-Dimethylcyclohexyl)-3-methyl-5-oxopiperazin-1-yl]carbonyl}-4-fluorobenzyl)-4,5-dimethylpyridazin-3(2H)-one trifluoroacetate], below 50 nM. Regarding `Cc1c(Cc2ccc(F)c(C(=O)N3CC(=O)N(C4CCCOC4)C(C)C3)c2)n[nH]c(=O)c1C` (stereo not drawn) [Example 129, 6-(4-Fluoro-3-{[3-methyl-5-oxo-4-(tetrahydro-2h-pyran-3-yl)piperazin-1-yl]carbonyl}benzyl)-4,5-dimethylpyridazin-3(2H)-one trifluoroacetate], the CC50 fell in the range of 50 to 500 nM. Consider `Cc1c(Cc2ccc(F)c(C(=O)N3CC(=O)N(C4CCOC4)C(C)C3)c2)n[nH]c(=O)c1C` (stereo not drawn) [Example 130, 6-(4-Fluoro-3-{[3-methyl-5-oxo-4-(tetrahydrofuran-3-yl)piperazin-1-yl]carbonyl}benzyl)-4,5-dimethylpyridazin-3(2H)-one trifluoroacetate], for which the CC50 lay within 50 to 500 nM. In the case of `Cc1c(Cc2ccc(F)c(C(=O)N3CC(=O)N(C(c4ccccc4)C(F)F)C(C)C3)c2)n[nH]c(=O)c1C` (stereo not drawn) [Example 131, 6-(3-{[4-(2,2-Difluoro-1-phenylethyl)-3-methyl-5-oxopiperazin-1-yl]carbonyl}-4-fluorobenzyl)-4,5-dimethylpyridazin-3(2H)-one trifluoroacetate], the CC50 is below 50 nM.

Take `Cc1c(Cc2ccc(F)c(C(=O)N3CC(=O)N(C4COc5ccccc5C4)C(C)C3)c2)n[nH]c(=O)c1C` (stereo not drawn) [Example 132, 6-(3-{[4-(3,4-Dihydro-2H-chromen-3-yl)-3-methyl-5-oxopiperazin-1-yl]carbonyl}-4-fluorobenzyl)-4,5-dimethylpyridazin-3(2H)-one trifluoroacetate]: the CC50 is below 50 nM.
